Results taken from patent publication US9879013B2, “Purinone derivative” (ONO PHARMACEUTICAL CO., LTD., priority 2010, dated 2018).
pIC50: −log10 of the molar value.

Columns and labels:
[1] = test system: Human liver cells; assay: Ability to reduce the mitochondrial membrane potential in cultured human hepatoma cells (JC-1); assay type: cell-based; details: JC-1, exposure for 24 hours, read-out: Ability to lower the mitochondrial membrane potential (IC50 (μM))
From the text: Measurement of the Cytotoxicity and Ability to Reduce the Mitochondrial Membrane Potential in Cultured Human Hepatoma Cells
Tissue that maintains an aerobic equilibrium, e.g., the kidneys and heart, and tissue that is exposed to high drug concentrations and carries out drug metabolism, e.g., the liver, are known to be sensitive to mitochondrial dysfunction (Drug Discovery Today, 12 (17-18), 777-785, 2007). The reduction or extinction of the mitochondrial membrane potential by a drug is caused by the direct inhibition of the electron transport system, decoupling of electron transport from ATP synthase, or the opening of a mitochondrial membrane permeability transition pore. As a consequence, measurement of the mitochondrial membrane potential of liver cells can provide a parameter for hepatotoxicity.
Human liver cells were seeded into a collagen-coated 96-well plate at a cell density of 30,000 cells/well and incubation was carried out overnight in an incubator at 37° C. in 5% CO2-95% air. The cultured cells were stained for 1 hour with 5,5′,6,6′-tetrahydro-1,1′,3,3′-tetramethyl-benzamidazolocarbocyanine iodide (JC-1) followed by treatment with the test compound. The test compound was dissolved in DMSO and then diluted with the liquid culture medium Hepatocyte Culture Medium (HCM) and added to the cells. The test compound treatment concentrations were 0, 6.25, 12.5, 25, 50, 100, 200, and 400 μmol/L. After exposure to the test compound for 24 hours, measurement was performed with a SpectraMax plate reader (Molecular Devices, LLC) at an excitation wavelength of 485 nm and a fluorescence wavelength of 538 nm and an excitation wavelength of 544 nm and a fluorescence wavelength of 590 nm. The membrane potential was determined by the ratio between the 544 nm/590 nm measurement value and the 485 nm/538 nm measurement value. After this, the ATP concentration in the cells was measured using a Celltiter Glo luminescent assay kit (Promega Corporation) in order to evaluate the cell toxicity of the test compound. The cells were lysed by the assay buffer provided with the measurement kit and the concentration of the ATP released from the cells was measured using the luciferin-luciferase enzyme activity as the index. The emission was measured using a SpectraMax plate reader. […] The ability to lower the mitochondrial membrane potential of the test compounds and the cytotoxicity of the test compounds are given in Table 3 below.

[2] = target: Lck (Homo sapiens (Human), UniProt P06239); assay: Lck inhibitory activity, selectivity for Btk (Z'-LYTE kinase assay); assay type: biochemical; details: ratio of the IC50 values of the individual kinases
Chain of Lck (P06239 whole entry): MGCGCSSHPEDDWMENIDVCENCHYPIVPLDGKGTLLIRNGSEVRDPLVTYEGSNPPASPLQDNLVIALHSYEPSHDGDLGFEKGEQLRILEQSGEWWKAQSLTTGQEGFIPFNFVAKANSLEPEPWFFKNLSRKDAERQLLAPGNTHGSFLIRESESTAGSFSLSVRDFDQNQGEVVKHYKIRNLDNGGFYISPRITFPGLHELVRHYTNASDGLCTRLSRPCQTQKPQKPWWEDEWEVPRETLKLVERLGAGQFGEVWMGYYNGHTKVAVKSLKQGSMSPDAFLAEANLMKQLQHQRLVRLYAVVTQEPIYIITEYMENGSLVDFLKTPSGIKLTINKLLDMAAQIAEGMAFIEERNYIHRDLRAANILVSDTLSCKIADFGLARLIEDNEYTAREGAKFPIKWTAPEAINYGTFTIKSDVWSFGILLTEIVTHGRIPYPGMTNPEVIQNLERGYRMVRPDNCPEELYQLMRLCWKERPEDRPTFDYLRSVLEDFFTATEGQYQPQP
Experimental: (§1) The inhibitory activity for other kinases (for example, Lck, Fyn, and LynA (all from Invitrogen Corporation) was measured in the same manner as described above using the particular kinase in place of the Btk.

[3] = target: LynA (Homo sapiens (Human), UniProt P07948); assay: LynA inhibitory activity, selectivity for Btk (Z'-LYTE kinase assay); assay type: biochemical; details: ratio of the IC50 values of the individual kinases
Chain of LynA (P07948 whole entry): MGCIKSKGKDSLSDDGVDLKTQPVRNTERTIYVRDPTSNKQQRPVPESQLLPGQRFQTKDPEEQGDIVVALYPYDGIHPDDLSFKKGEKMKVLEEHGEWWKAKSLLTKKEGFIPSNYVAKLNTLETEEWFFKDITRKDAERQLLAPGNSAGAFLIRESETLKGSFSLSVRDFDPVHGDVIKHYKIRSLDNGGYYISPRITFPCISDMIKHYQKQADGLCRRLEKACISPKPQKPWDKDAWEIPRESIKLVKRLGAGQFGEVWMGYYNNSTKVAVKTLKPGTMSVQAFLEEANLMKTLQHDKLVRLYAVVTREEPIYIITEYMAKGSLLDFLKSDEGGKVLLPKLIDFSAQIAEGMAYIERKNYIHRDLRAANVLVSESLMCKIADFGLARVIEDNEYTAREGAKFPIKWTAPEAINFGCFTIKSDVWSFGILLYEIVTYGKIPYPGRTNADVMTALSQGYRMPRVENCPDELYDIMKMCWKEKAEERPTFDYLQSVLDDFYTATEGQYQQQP
Experimental: as §1

[4] = test system: T cells (CD3-positive CD20-negative cells) of human PBMC; assay: T cell activation using human PBMC (CD69-positive signal, FACS); assay type: cell-based; details: anti-CD3/CD28 antibody beads, 16 hours
Experimental: Measurement of B Cell Activation or T Cell Activation Using Human PBMC
A 10 mmol/L solution of the test compound in DMSO was dispensed into a 96-well plate (Nunc) and a 5× dilution series was prepared using DMSO. A 100× concentration test compound dilution solution was prepared by an additional 10× dilution with RPMI1640 medium (contained 10% HI-FBS, 1% penicillin). Human peripheral blood mononuclear cells (PBMC) were diluted with the medium to provide a density of 2×10^6 cells/mL. 396 μL of the cell suspension was added to a 96-well plate into which 4 μL of the 100× concentration test compound dilution solution or the solvent (10% DMSO) had already been introduced and incubation was performed for 10 minutes at 37° C. and 5% CO2. 10 μL of an anti-IgM antibody (Southern Biotech)/IL-4 (R & D Systems) solution or an anti-CD3/CD28 antibody bead suspension (Invitrogen Corporation) was added to a 96-well plate and 90 μL of the cell suspension prepared as described above was also added (final concentrations: anti-IgM antibody=1 μg/mL, IL-4=3 ng/mL, and anti-CD3/CD28 antibody beads=2×10^6 beads/mL). 10 μL of the medium was added to the unstimulated sample wells in place of these stimulating substances, and standing at 37° C. and 5% CO2 was again performed. Incubation was carried out for 16 hours in the case of the evaluation of T cell activation and for 22 hours in the case of the evaluation of B cell activation. 100 μL Cytofix Buffer (BD Biosciences) was added; holding for 15 minutes at 37° C. was performed; centrifugation for 10 minutes at 1500 rpm was carried out; and the supernatant was removed. 200 μL of Perm buffer II (BD Biosciences) at −20° C. was added; holding for 30 minutes on ice was performed; centrifugation for 10 minutes at 1500 rpm was carried out; and the supernatant was removed. 0.5 mL Stain buffer (BD Biosciences) was added and centrifugation was carried out for 10 minutes at 1500 rpm. 100 μL of a mixed antibody solution was added and incubation was performed for 30 minutes on ice in the dark. The antibody was the 10× dilution with Stain Buffer of the 1:1:1 mixture of PerCP-labeled anti-CD3 antibody (BD Biosciences), AF488-labeled anti-CD20 antibody (BD Biosciences), and PE-labeled anti-CD69 antibody (BD Biosciences). 0.4 mL Stain Buffer was added and the supernatant was removed. […] The CD69-positive signal (average fluorescence intensity) of the CD20-positive CD3-negative cells (B cells) or CD3-positive CD20-negative cells (T cells) was measured. After subtracting the value for the unstimulated sample, the % inhibition with reference to the value for the stimulated control sample was determined. The % inhibition was graphically plotted using Prism (ver. 5.01 J, GraphPad Software) and the IC50 value was determined.

[5] = target: Human CYP2C8 (Homo sapiens (Human), UniProt P10632); assay: Inhibitory action on human CYP2C8; assay type: in vitro ADME
Chain of Human CYP2C8 (P10632 whole entry): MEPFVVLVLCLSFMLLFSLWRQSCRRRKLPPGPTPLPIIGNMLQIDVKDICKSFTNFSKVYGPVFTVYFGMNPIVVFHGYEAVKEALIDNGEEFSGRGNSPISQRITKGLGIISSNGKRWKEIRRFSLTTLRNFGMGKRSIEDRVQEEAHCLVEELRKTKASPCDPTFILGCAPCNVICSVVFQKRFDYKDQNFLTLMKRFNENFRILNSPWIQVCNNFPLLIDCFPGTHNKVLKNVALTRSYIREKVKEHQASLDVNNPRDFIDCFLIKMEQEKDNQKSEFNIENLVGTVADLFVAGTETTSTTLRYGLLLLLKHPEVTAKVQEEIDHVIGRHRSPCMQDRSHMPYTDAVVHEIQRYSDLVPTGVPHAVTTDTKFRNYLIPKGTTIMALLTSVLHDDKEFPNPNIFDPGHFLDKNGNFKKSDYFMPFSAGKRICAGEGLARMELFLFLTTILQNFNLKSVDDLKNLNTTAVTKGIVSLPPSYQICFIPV
Experimental: Measurement of the Inhibitory Activity on Drug-Metabolizing Enzymes (Inhibitory Action on Human CYP2C8 and Human CYP2C19)
The reaction was carried out in a 96-well plate. […] 100 μL of this reaction mixture and 50 μL of the test compound prepared as described above and the positive control solution prepared as described above were dispensed into each well and pre-incubation was carried out at 10 minutes for 37° C. The reaction was started by the addition of 50 μL NADPH solution (final concentration=1 mmol/L) and incubation was carried out for 30 minutes at 37° C.

[6] = Stability in the human liver microsome; details: 0.5 mg/mL microsomes, NADPH, 15 minutes at 37° C.
Experimental: Evaluation of the Stability in the Rat and Human Liver Microsome
A 0.25 mmol/L solution was prepared by diluting the test compound (10 mmol/L DMSO solution, 5 μL) with an aqueous 50% acetonitrile solution (195 μL).
20 μL was collected immediately after the start and the reaction was stopped by the addition to 180 μL of acetonitrile that contained an internal standard (warfarin). 20 μL of this solution was stirred with 180 μL of an aqueous 50% acetonitrile solution on a filter plate for protein depletion followed by suction filtration, and the filtrate was used as the standard sample.
The previously indicated reaction solution was incubated for 15 minutes at 37° C., and 20 μL was then added to 180 μL cold acetonitrile (contained the internal standard warfarin) to stop the reaction. 20 μL of this was stirred with 180 μL of an aqueous 50% acetonitrile solution on a filter plate for protein depletion followed by suction filtration, and the filtrate was used as the standard sample.

IC50 [1]: 324 µM
Lck[IC50]/Btk[IC50] [2]: 80
LynA[IC50]/Btk[IC50] [3]: 459
pIC50 [5]: < 5.00
Residual ratio (%) in the human liver microsome [6]: 87.0%
SMILES: C=CC(=O)N1CC(n2c(=O)n(-c3ccc(Oc4ccccc4)cc3)c3c(N)ncnc32)C1 [Example 8, 9-(1-acryloyl-3-azetidinyl)-6-amino-7-(4-phenoxyphenyl)-7,9-dihydro-8H-purin-8-one]
pIC50 [4]: < 5.00
